Experimental data reported in ChEMBL document CHEMBL4842340, “Development of Cagrilintide, a Long-Acting Amylin Analogue” (J Med Chem, 2021).
In brackets after ≈: the same amount, converted by molar mass.

What was measured:
[1] = Clearance in Sprague-Dawley rat at 10 nmol/kg, iv measured up to 96 hrs by LC-MS analysis; format: ADME, organism-based; settings: in vivo
[2] = Agonist activity at human AMY3R (CT+RAMP3) expressed in Hollex1 cells incubated for 3 hrs by luminescence assay; format: cell-based; settings: Hollex1, 3 h
Insulin (Homo sapiens) [3] = molecular target: Insulin (Homo sapiens) (UniProt P01308); test: Effect on insulin (unknown origin) amyloid fibril formation assessed as peptide recovery in glycyl-glycine buffer at pH 4 measured after 45 hrs by thioflavin-T fluorescence assay relative to control; parameters: concentration or dose not given beside the values
Rattus norvegicus [4] = test: Reduction in food intake in Sprague-Dawley rat at 30 nmol/kg, sc administered as single dose measured upto 24 hrs relative to control; format: functional; parameters: scale not given: the % may be the effect or the level left; settings: time hrs <=24
[5] = Apparent volume of distribution in Sprague-Dawley rat at 10 nmol/kg, iv measured up to 96 hrs by LC-MS analysis; format: ADME, organism-based; settings: in vivo, read-out: Vz
[6] = Displacement of [125I]-amylin from human AMY3R (CTR+RAMP3) expressed in BHK-13 cells measured after 120 mins by scintillation proximity assay; format: cell-based
Homo sapiens [7] = organism: Homo sapiens; test: Ratio of IC50 for displacement of [125I]-calcitonin from human calcitonin receptor expressed in tk-ts 13 cells to IC50 for displacement of [125I]-amylin from human AMY3R (CTR+RAMP3) expressed in BHK-13 cells; format: cell-based
Rattus norvegicus [8] = organism: Rattus norvegicus; test: Ratio of IC50 for displacement of [125I]-calcitonin from rat calcitonin receptor expressed in tk-ts 13 cells to IC50 for displacement of [125I]-amylin from rat AMY3R (CTR+RAMP3) expressed in BHK-13 cells; format: cell-based
Rattus norvegicus [9] = test: Reduction in food intake in Sprague-Dawley rat at 3 nmol/kg, sc administered as single dose measured after 24 to 48 hrs relative to control; format: functional; parameters: scale not given: the % may be the effect or the level left; settings: time 24-48 hrs
[10] = Solubility of the compound in bis-tris propane at pH 7.5 by UPLC analysis; format: physicochemical; settings: bis-tris propane buffer
[11] = Displacement of [125I]-calcitonin from human calcitonin receptor expressed in tk-ts 13 cells measured after 120 mins by scintillation proximity assay; format: cell-based; settings: tk-ts13
[12] = Half life in Sprague-Dawley rat at 10 nmol/kg, sc measured up to 96 hrs by LC-MS analysis; format: ADME, organism-based; settings: in vivo
Rattus norvegicus [13] = organism: Rattus norvegicus; test: Ratio of EC50 for rat calcitonin receptor expressed in BHK-13 cells to EC50 for rat AMY3R (CT+RAMP3) expressed in tk-ts13 cells; format: cell-based
Rattus norvegicus [14] = test: Reduction in food intake in Sprague-Dawley rat at 30 nmol/kg, sc administered as single dose measured after 24 to 48 hrs relative to control; format: functional; parameters: scale not given: the % may be the effect or the level left; settings: time 24-48 hrs
[15] = Bioavailability in Sprague-Dawley rat at 10 nmol/kg, sc measured up to 96 hrs by LC-MS analysis; format: ADME, organism-based; settings: in vivo
[16] = Dose normalized AUC in Sprague-Dawley rat at 10 nmol/kg, sc measured up to 96 hrs by LC-MS analysis; format: ADME, organism-based; settings: in vivo
[17] = Solubility of the compound in lactate at pH 5 by UPLC analysis; format: physicochemical; settings: lactate buffer
Insulin (Homo sapiens) [18] = molecular target: Insulin (Homo sapiens) (UniProt P01308); test: Effect on insulin (unknown origin) amyloid fibril formation assessed as lag time in HEPES buffer at pH 7.5 measured after 45 hrs by thioflavin-T fluorescence assay
Insulin (Homo sapiens) [19] = molecular target: Insulin (Homo sapiens) (UniProt P01308); test: Effect on insulin (unknown origin) amyloid fibril formation assessed as lag time in glycyl-glycine buffer at pH 4 measured after 45 hrs by thioflavin-T fluorescence assay
[20] = Displacement of [125I]-amylin from rat AMY3R (CTR+RAMP3) expressed in BHK-13 cells measured after 120 mins by scintillation proximity assay; format: cell-based
[21] = Agonist activity at human calcitonin receptor expressed in BHK570 cells assessed as increase in intracellular cAMP concentration incubated for 3 hrs in absence of albumin by CRE luciferase reporter gene assay; format: cell-based; settings: BHK570, 3 h
[22] = Displacement of [125I]-calcitonin from rat calcitonin receptor expressed in tk-ts 13 cells measured after 120 mins by scintillation proximity assay; format: cell-based; settings: tk-ts13
[23] = Solubility of the compound in lactate at pH 4 by UPLC analysis; format: physicochemical; settings: lactate buffer
Homo sapiens [24] = organism: Homo sapiens; test: Ratio of EC50 for human calcitonin receptor expressed in BHK570 cells to EC50 for human AMY3R (CT+RAMP3) expressed in Hollex1 cells; format: cell-based
Insulin (Homo sapiens) [25] = molecular target: Insulin (Homo sapiens) (UniProt P01308); test: Effect on insulin (unknown origin) amyloid fibril formation assessed as peptide recovery in HEPES buffer at pH 7.5 measured after 45 hrs by thioflavin-T fluorescence assay relative to control
[26] = Dose normalized AUC in Sprague-Dawley rat at 10 nmol/kg, iv measured up to 96 hrs by LC-MS analysis; format: ADME, organism-based; settings: in vivo
[27] = Agonist activity at rat calcitonin receptor expressed in BHK-13 cells assessed as increase in intracellular cAMP concentration incubated for 25 mins by CRE luciferase reporter gene assay; format: cell-based; settings: BHK-13, 25 min
[28] = Solubility of the compound in bis-tris propane at pH 7 by UPLC analysis; format: physicochemical; settings: bis-tris propane buffer
[29] = Solubility of the compound in bis-tris propane at pH 8 by UPLC analysis; format: physicochemical; settings: bis-tris propane buffer
Rattus norvegicus [30] = test: Reduction in food intake in Sprague-Dawley rat at 3 nmol/kg, sc administered as single dose measured upto 24 hrs relative to control; format: functional; parameters: scale not given: the % may be the effect or the level left; settings: time hrs <=24
[31] = Solubility of the compound in lactate at pH 3 by UPLC analysis; format: physicochemical; settings: lactate buffer
[32] = Solubility of the compound in bis-tris propane at pH 6 by UPLC analysis; format: physicochemical; settings: bis-tris propane buffer
[33] = Half life in Sprague-Dawley rat at 10 nmol/kg, iv measured up to 96 hrs by LC-MS analysis; format: ADME, organism-based; settings: in vivo
[34] = Agonist activity at rat AMY3R (CT+RAMP3) expressed in tk-ts13 cells assessed as increase in intracellular cAMP level incuabted for 25 mins by CRE luciferase reporter gene assay; format: cell-based; settings: tk-ts13, 25 min
[35] = Solubility of the compound in bis-tris propane at pH 6.5 by UPLC analysis; format: physicochemical; settings: bis-tris propane buffer

Insulin (Homo sapiens), sequence (P01308 whole entry): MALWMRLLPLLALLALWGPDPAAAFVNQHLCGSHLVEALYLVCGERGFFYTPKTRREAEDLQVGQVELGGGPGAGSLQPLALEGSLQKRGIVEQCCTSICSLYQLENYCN

Question: What does the source list for `CC[C@H](C)[C@H](NC(=O)[C@@H]1CCCN1C(=O)CNC(=O)[C@H](Cc1ccccc1)NC(=O)[C@H](CC(N)=O)NC(=O)[C@H](CC(N)=O)NC(=O)[C@H](CO)NC(=O)[C@H](CO)NC(=O)[C@H](Cc1c[nH]cn1)NC(=O)[C@H](CCCNC(=N)N)NC(=O)[C@H](CC(C)C)NC(=O)[C@H](Cc1ccccc1)NC(=O)[C@H](CCC(=O)O)NC(=O)[C@H](C)NC(=O)[C@H](CC(C)C)NC(=O)[C@H](CCCNC(=N)N)NC(=O)[C@H](CCC(N)=O)NC(=O)[C@@H](NC(=O)[C@H](C)NC(=O)[C@@H]1CSSC[C@H](NC(=O)[C@H](CCCCN)NC(=O)CC[C@H](NC(=O)CCCCCCCCCCCCCCCCCCC(=O)O)C(=O)O)C(=O)N[C@@H](CC(N)=O)C(=O)N[C@@H]([C@@H](C)O)C(=O)N[C@@H](C)C(=O)N[C@@H]([C@@H](C)O)C(=O)N1)[C@@H](C)O)C(=O)N[C@@H](CC(C)C)C(=O)N1CCC[C@H]1C(=O)N1CCC[C@H]1C(=O)N[C@H](C(=O)N[C@@H](CC(N)=O)C(=O)N[C@H](C(=O)NCC(=O)N[C@@H](CO)C(=O)N[C@@H](CC(N)=O)C(=O)N[C@H](C(=O)N1CCC[C@H]1C(N)=O)[C@@H](C)O)C(C)C)[C@@H](C)O`?
Answer: clearance [1]: 3.77 mL/h/kg; EC50 [2]: 49 pM; Activity (Insulin (Homo sapiens) [3]): 96%; Activity (Rattus norvegicus [4]): 85%; Vd [5]: 0.109 L/kg; IC50 [6]: 170 pM; Ratio IC50 (Homo sapiens [7]): 1; Ratio IC50 (Rattus norvegicus [8]): 1; Activity (Rattus norvegicus [9]): 29%; solubility [10]: 200 µM (≈ 882 µg/mL); IC50 [11]: 223 pM; half-life [12]: 27 h; Ratio EC50 (Rattus norvegicus [13]): 1; Activity (Rattus norvegicus [14]): 84%; bioavailability [15]: 30%; AUC/dose [16]: 87 kg·h/L; solubility [17]: 200 µM (≈ 882 µg/mL); TIME (Insulin (Homo sapiens) [18]): 41 h; TIME (Insulin (Homo sapiens) [19]): 45 h; IC50 [20]: 520 pM; EC50 [21]: 62 pM; IC50 [22]: 681 pM; solubility [23]: 200 µM (≈ 882 µg/mL); Ratio EC50 (Homo sapiens [24]): 1; Activity (Insulin (Homo sapiens) [25]): 76%; AUC/dose [26]: 266 kg·h/L; EC50 [27]: 287 pM; solubility [28]: 200 µM (≈ 882 µg/mL); solubility [29]: 200 µM (≈ 882 µg/mL); Activity (Rattus norvegicus [30]): 40%; solubility [31]: 200 µM (≈ 882 µg/mL); solubility [32]: 200 µM (≈ 882 µg/mL); half-life [33]: 20 h; EC50 [34]: 348 pM; solubility [35]: 200 µM (≈ 882 µg/mL)
